Experimental data published in ChEMBL document CHEMBL1137901, “Biaryl guanidine inhibitors of in vitro HCV-IRES activity” (Bioorg Med Chem Lett, 2004).

What was measured:
[1] = tested on: Hepatitis C virus; assay: Selectivity was determined as the ratio of IC50 of non-IRES to that of IC50 of HCV-IRES; format: functional, Hepacivirus hominis
[2] = tested on: Hepatitis C virus; assay: In vitro inhibitory concentration against hepatitis C virus internal ribosome entry site (HCV-IRES) translation; format: functional, Hepacivirus hominis
[3] = In vitro inhibitory concentration against non internal ribosome entry site translation; format: functional

IC50 [2] | IC50 [3] | Structure (SMILES) | Selectivity [1]
32 µM |  | Cc1cc(C)nc(/N=C(\N)NCCc2cccnc2)n1 | 4
54 µM |  | Cc1cc(C)nc(/N=C(\N)NCCc2ccc([N+](=O)[O-])cc2)n1 | 1.5
46 µM |  | Cc1ccnc(/N=C(\N)NCCc2ccccc2)n1 | 3.5
> 200 µM | > 200 µM | Cc1cc(C)nc(/N=C(\N)NCCc2ccc(C(=O)O)cc2)n1 | 
75 µM |  | Cc1cc(C)nc(/N=C(\N)NC[C@H](O)c2ccccc2)n1 | >2.7
9.7 µM |  | Cc1cc(C)nc(/N=C(\N)NC[C@@H](O)c2ccccc2)n1 | >2.2
> 200 µM | > 200 µM | Cc1cc(C)nc(NC(=N)NCCc2ccccc2)c1 | 
19 µM |  | Cc1nc(/N=C(\N)NCCc2ccccc2)nc(C)c1O | 3.6
> 200 µM | > 200 µM | Cc1cc(C)cc(NC(=N)NCCc2ccccc2)c1 | 
55 µM |  | Cc1cc(C)nc(/N=C(\N)NCCc2ccncc2)n1 | >3.6
75 µM |  | Cc1cc(C)nc(/N=C(\N)NCC(c2ccccc2)c2ccccc2)n1 | >2.7
50 µM |  | Cc1cc(C)nc(/N=C(\N)NCCc2ccc(Br)cc2)n1 | 2.5
15 µM |  | Cc1cc(C)nc(/N=C(\N)NCCc2ccccc2C)n1 | 1.8
29 µM |  | COC(=O)c1ccc(CC/N=C(\N)Nc2nc(C)cc(C)n2)cc1 | 3.4
8.1 µM |  | Cc1nc(/N=C(\N)NCCc2ccccc2)nc(C)c1Br | 2.2
> 200 µM | > 200 µM | Cc1cc(C)nc(/N=C(\N)NCCc2ccc(C(C)(C)C)cc2)n1 | 
25 µM |  | COc1ccc(CCNC(=N)Nc2nc(C)cc(C)n2)cc1 | 4.1
38 µM |  | Cc1cc(C)nc(/N=C(\N)NCc2cccs2)n1 | 1.3
23 µM |  | Cc1cccc(CC/N=C(\N)Nc2nc(C)cc(C)n2)c1 | 2.8

IC50 [2] | IC50 [3] | Structure (SMILES) | Selectivity [1]
92 µM |  | Cc1cc(C)nc(/N=C(\N)NCCc2ccc(OC(F)(F)F)cc2)n1 | >2.2
35 µM |  | COc1cc(OC)nc(/N=C(\N)NCCc2ccccc2)n1 | 5
23 µM |  | Cc1cc(C)nc(/N=C(\N)NCCc2ccc(F)cc2)n1 | 4.1
24 µM |  | Cc1cc(C)nc(/N=C(\N)NCCc2ccc(Cl)cc2)n1 | 2.3
9.9 µM |  | COc1c(C)nc(/N=C(\N)NCCc2ccccc2)nc1C | 3.4
16 µM |  | Cc1cc(C)nc(/N=C(\N)NCCc2ccccc2Cl)n1 | 1.8
2.1 µM |  | Cc1nc(/N=C(\N)NCCc2ccccc2)nc(C)c1OCCCN(C)C | 2
12 µM |  | Cc1cc(C)nc(/N=C(\N)NCCc2cccc(Cl)c2)n1 | 1.8
26 µM |  | COc1cc(CC/N=C(\N)Nc2nc(C)cc(C)n2)cc(OC)c1 | >7.7
68 µM |  | COc1ccc(CC/N=C(\N)Nc2nc(C)cc(C)n2)c(OC)c1 | 2.6
34 µM |  | Cc1ccc(CC/N=C(\N)Nc2nc(C)cc(C)n2)cc1 | 3.8
82 µM |  | Cc1cc(C)nc(/N=C(\N)NCCc2ccc(C(F)(F)F)cc2)n1 | 2.2
13 µM |  | COc1ccccc1CC/N=C(\N)Nc1nc(C)cc(C)n1 | 1.8
23 µM |  | Cc1cc(C)nc(/N=C(\N)NCCc2ccc3ccccc3n2)n1 | 3.7
13 µM |  | CCc1cc(CC)nc(/N=C(\N)NCCc2ccccc2)n1 | 2.2
23 µM |  | Cc1ccc(CC/N=C(\N)Nc2nc(C)cc(C)n2)c(C)c1 | 3.3
97 µM |  | Cc1cc(C)nc(/N=C(\N)NCc2ccco2)n1 | >2
100 µM |  | COc1cc(OC)c(CC/N=C(\N)Nc2nc(C)cc(C)n2)c(OC)c1 | >2
39 µM |  | Cc1cc(C)nc(/N=C(\N)NCCc2ccccn2)n1 | 2.4

IC50 [2] | IC50 [3] | Structure (SMILES) | Selectivity [1]
104 µM |  | Cc1cc(C)nc(N/C(N)=N/CCc2ccc(C(C)C)cc2)n1 | >1.9
94 µM |  | COc1ccc(OC)c(CC/N=C(\N)Nc2nc(C)cc(C)n2)c1 | >2.1
> 200 µM | > 200 µM | Cc1cc(C)nc(NC(=N)N(C)CCc2ccccc2)n1 | 
82 µM |  | CCOc1ccc(CC/N=C(\N)Nc2nc(C)cc(C)n2)cc1 | >2.4
> 200 µM | > 200 µM | Cc1cc(C)nc(NC(=O)NCCc2ccccc2)n1 | 
> 200 µM | > 200 µM | Cc1cc(C)nc(/N=C(\S)NCCc2ccccc2)n1 | 
35 µM |  | Cc1cc(C)nc(N/C(N)=N/C[C@H](C)c2ccccc2)n1 | 5.7
> 200 µM | > 200 µM | Cc1cc(C)nc(N(C)C(=N)NCCc2ccccc2)n1 | 
80 µM |  | Cc1cc(C)nc(/N=C(\N)NCCc2ccc(-c3ccccc3)cc2)n1 | >2.5
49 µM |  | Cc1cc(C)nc(/N=C(\N)NCCc2ccc(O)cc2)n1 | 3
35 µM |  | Cc1ccc(C)c(CC/N=C(\N)Nc2nc(C)cc(C)n2)c1 | 5.7
25 µM |  | Cc1cc(C)nc(/N=C(\N)NCc2cc3ccccc3o2)n1 | 2.8
4.2 µM |  | Cc1nc(/N=C(\N)NCCc2ccccc2)nc(C)c1C | 1.3
9.6 µM |  | Cc1cc(C)nc(/N=C(\N)NCCc2ccccc2)n1 | 2.4
150 µM |  | Cc1cc(C)nc(/N=C(\N)NCCCc2ccccc2)n1 | 1.3
21 µM |  | Cc1cc(C)nc(N/C(N)=N/C[C@@H](C)c2ccccc2)n1 | 1.9
7.6 µM |  | Cc1cc(C)nc(/N=C(\N)NCc2ccccc2)n1 | 2.6
61 µM |  | Cc1cc(C)nc(/N=C(\N)NCCc2ccc(N)cc2)n1 | 2.5
23 µM |  | Cc1cc(C)nc(/N=C(\N)NCc2nc3ccccc3[nH]2)n1 | 1.7
